In US20230174571A1, “METHOD OF TREATING SHIP1-MEDIATED DISEASES USING PELOROL DERIVATIVES” (Zebrapeutics Inc., priority 2020, published 2023):

How the values were obtained:
[1] = system: LPS-induced TNFα; experiment: Mouse endotoxemia model: serum TNFα after i.p. LPS; assay type: in vivo; conditions: 1 h
Procedure: Mouse Endotoxemia Model. Groups of 6-8 week old BALB/c SHIP1+/+ and SHIP1−/−mice were intraperitoneally injected with either 1 or 5 mg/kg of LPS with or without co-administration of 1 mg/kg of IL10. Blood was drawn 1 hour later by cardiac puncture for determination of plasma cytokine levels by ELISA. ELISA kits were purchased from BD Biosciences (Mississauga, ON) for TNFα.
A role for STAT3 in mediating IL10 inhibition of TNFα in vivo was first described by Takeda et al (Takeda et al., 1999). […] This implies that a protein other than STAT3 might contribute to IL10 action. […] Presently, the ability of IL10 to inhibit LPS-induced inflammatory cytokine/chemokine expression in vivo is shown (FIG. 1A) in SHIP1^+/+ and SHIP1^−/− mice, and found IL10 inhibited TNFα in SHIP1^+/+ but not SHIP1^−/− mice. It was previously shown that SHIP1 phosphatase activity is allosterically stimulated by its product PI(3,4)P2 (Ong et al., 2007). […] Presently, it is shown that compound I-1 inhibits LPS-induced TNFα in SHIP1^+/+ but not SHIP1^−/− mice, showing that these compounds can mimic anti-inflammatory properties of IL10 and is indeed specific for SHIP1 (FIG. 1B).
Data represent means of *p<0.05, **p<0.01 when compared with LPS-alone-stimulated mice, ns=not significant. […] Fractions were collected every 5 min for measurement of TNFα levels Data are representative of two independent experiments.

[2] = biological target: T1, SHIP1 and STAT3 (Mus musculus, UniProt Q9ES52, Y190F); experiment: In vitro pull down assay of His6-SHIP1 with STAT3; assay type: cell-based; conditions: Y190F vs wild-type SHIP1 cells; 5 minutes stimulation
T1 construct: expressed in transfected cells; host or cells: J17 (SHIP1-/- mouse BMDM-derived line), lentiviral transduction
T1 sequence (Q9ES52 1-1191 Y190F): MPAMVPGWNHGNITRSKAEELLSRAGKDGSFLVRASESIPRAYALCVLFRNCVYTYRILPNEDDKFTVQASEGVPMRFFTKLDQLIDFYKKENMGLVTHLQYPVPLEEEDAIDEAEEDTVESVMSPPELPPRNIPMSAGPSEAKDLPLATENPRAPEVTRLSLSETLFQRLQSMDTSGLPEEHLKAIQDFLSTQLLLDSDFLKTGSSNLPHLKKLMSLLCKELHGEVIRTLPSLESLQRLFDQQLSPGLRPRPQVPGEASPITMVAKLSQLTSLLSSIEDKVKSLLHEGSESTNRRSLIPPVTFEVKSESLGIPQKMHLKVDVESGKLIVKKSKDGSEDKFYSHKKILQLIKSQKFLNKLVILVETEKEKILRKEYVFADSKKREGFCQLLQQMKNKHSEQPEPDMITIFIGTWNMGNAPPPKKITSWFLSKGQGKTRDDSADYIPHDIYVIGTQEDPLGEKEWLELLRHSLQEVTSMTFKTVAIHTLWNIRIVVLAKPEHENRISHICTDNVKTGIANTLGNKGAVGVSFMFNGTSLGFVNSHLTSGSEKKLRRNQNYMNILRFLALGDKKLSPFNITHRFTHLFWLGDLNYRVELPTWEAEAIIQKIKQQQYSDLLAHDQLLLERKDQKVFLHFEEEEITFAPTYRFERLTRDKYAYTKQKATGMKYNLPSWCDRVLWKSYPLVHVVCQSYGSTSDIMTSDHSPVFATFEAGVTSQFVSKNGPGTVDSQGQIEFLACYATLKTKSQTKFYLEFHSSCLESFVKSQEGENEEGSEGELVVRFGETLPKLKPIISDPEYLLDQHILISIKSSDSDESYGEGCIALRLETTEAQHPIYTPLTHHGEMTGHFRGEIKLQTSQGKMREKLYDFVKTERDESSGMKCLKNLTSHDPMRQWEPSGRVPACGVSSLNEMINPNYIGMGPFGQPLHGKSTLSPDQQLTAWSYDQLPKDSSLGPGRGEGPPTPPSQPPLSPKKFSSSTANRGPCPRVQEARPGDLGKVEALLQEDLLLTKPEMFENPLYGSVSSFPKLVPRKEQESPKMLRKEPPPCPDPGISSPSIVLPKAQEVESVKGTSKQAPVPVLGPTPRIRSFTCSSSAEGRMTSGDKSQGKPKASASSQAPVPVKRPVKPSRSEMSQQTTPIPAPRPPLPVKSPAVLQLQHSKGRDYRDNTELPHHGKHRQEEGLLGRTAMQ
Procedure: In vitro pull down assay. J17 His6-SHIP1 and Y190F cells were seeded at 2×10^6 cells per well in a 6-well plate. After overnight incubation, fresh cell media was added for 30 minutes before stimulation with 100 ng/ml IL10, […] or 20 μM compound I-2 for 5 minutes. Cells were lysed with Protein Solubilization Buffer (PSB, 50 mM Hepes, pH 7.5, […], 10 mM Na Pyrophosphate, 2 mM NaVO4, 2 mM Na Molybdate, 2 mM EDTA) containing 1% octylglucoside, 0.01 M imidazole, and protease inhibitor cocktail (Roche Diagnostics, Laval, QC) for 30 minutes at 4° C. and centrifuged at 10000 rpm for 15 minutes. EDTA resistant Ni beads (Roche Diagnostics, Laval, QC) were added to supernatants and the mixture incubated at 4° C. for 1 hour before spinning down and washing of beads three times with 0.1% octylglucoside wash buffer in PSB. Bead samples and starting material cell lysates were separated on a 7.5% SDS-PAGE gel.
Immunoblotting. Protein lysates were separated on SDS-PAGE gels and transferred onto polyvinylidene fluoride (PVDF) membrane (Millipore, Etobicoke, ON). Membranes were blocked and probed, where appropriate, with the following primary antibodies overnight: SHIP1 (P1C1) (Santa Cruz Biotechnology), pSHIP1 (Y190) (Kinexus), STAT3 (9D8) (ThermoFisher Scientific), pSTAT3 (Y705) (Thermo Fisher Scientific), STAT1 (BD Transduction Laboratories), pSTAT1 (Y701) (Upstate Biotechnology), GAPDH and actin (Sigma-Aldrich). Membranes were developed with either Alexa Fluor® 660 anti-mouse IgG or Alexa Fluor® 680 anti-rabbit IgG antibodies (Thermo Fisher Scientific) and imaged using a LI-COR Odyssey Imager.

| Compound | LPS-induced TNFα (serum) ([1]; SHIP1+/+ mice) | LPS-induced TNFα (serum) ([1]; SHIP1−/− mice) | reduction of Y190F SHIP1 mutant ability to interact with STAT3 [2] [fold] |
| --- | --- | --- | --- |
| Cc1cc(O)cc2c1C1(C)CCC3C(C)(C)CCCC3(C)C1C2 (stereo not drawn) [Compound I-1] | inhibits | not | – |
| CC12CCC3C(C)(C)C(N)CCC3(C)C1Cc1cc(O)cc(O)c12 (stereo not drawn) [Compound I-2] | – | – | 2 |
| IL10: anti-inflammatory cytokine interleukin-10 | inhibited | not | 2 |
